Patent US12440486B2, “RBP4 antagonists for treatment and prevention of non-alcoholic fatty liver disease and gout” (The Trustees of Columbia University in the City of New York, priority 2018, dated 2025)

Assays:
RBP4 [1] = biological target: T1, RBP4 (Homo sapiens, UniProt P02753); experiment: SPA assay measuring displacement of 3H-retinol from purified human RBP4; format: binding; conditions: for IC50: binding to human RBP4, 3H-retinol at 10 nM as radioligand; for ability to function as RBP4 ligands (competition binding): displacement of radioactive retinol from purified human RBP4
Description: 3H-retinol at 10 nM was used as a radioligand. […] Contacting residues are labeled and illustrated in stick format (MOE, Chemical Computing Group, Inc., Montreal, CA).
The affinity of palmitic acid, oleic acid, linoleic acid, and docosahexaenoic acid for RBP4 was tested using a SPA assay that measures displacement of radioactive retinol from purified human RBP4 (FIG. 21A).

ob/ob mice = ob/ob mice fed a high-fat diet, Koh 2012; cited from earlier work
RBP4-TTR interaction = RBP4-TTR interaction (Homo sapiens, UniProt P02753); conditions: Berni 1992, Schaffer 1993; cited from earlier work
RBP4 [2] = biological target: T1, RBP4; conditions: Berni 1992; cited from earlier work
RBP4 [3] = biological target: RBP4 (Rattus norvegicus, UniProt P04916); conditions: Adams 1995; cited from earlier work

Row | IC50 (RBP4 [1]) [µM] | ability to function as RBP4 ligands (competition binding) (RBP4 [1]) | Compound | weight gain, insulin resistance and fatty liver (ob/ob mice) | RBP4-TTR interaction (RBP4-TTR interaction) | binding to RBP4 (RBP4 [2]) | serum RBP4 and retinol (RBP4 [3])
1 | 49.9 |  | CC/C=C\C/C=C\C/C=C\C/C=C\C/C=C\C/C=C\CCC(=O)O [Docosahexanoic acid (DHA), docosahexaenoic acid] |  |  |  | 
2 |  |  | CC1=C(/C=C/C(C)=C/C=C/C(C)=C/C(=O)Nc2ccc(O)cc2)C(C)(C)CCC1 [fenretinide, N-(4-hydroxy-phenyl)retinamide] | decreases | disrupt the RBP4-TTR interaction | bind to RBP4 | reduce serum RBP4 and retinol
3 | 17.3 | weak RBP4 ligands | CCCCC/C=C\C/C=C\CCCCCCCC(=O)O [linoleic acid] |  |  |  | 
4 | 22.6 | weak RBP4 ligands | CCCCCCCCCCCCCCCC(=O)O [palmitic acid] |  |  |  | 

Row | Compound | IC50 (RBP4 [1]) [µM] | ability to function as RBP4 ligands (competition binding) (RBP4 [1]) | weight gain, insulin resistance and fatty liver (ob/ob mice) | RBP4-TTR interaction (RBP4-TTR interaction) | binding to RBP4 (RBP4 [2]) | serum RBP4 and retinol (RBP4 [3])
5 | CCCCCCCC/C=C\CCCCCCCC(=O)O [oleic acid] | 33 | weak RBP4 ligands |  |  |  | 
